{"source": "patent EP2853532B1", "about": "“1,2,4-oxadiazole derivatives as allosteric modulators of metabotropic glutamate receptors belonging to group III” (Instytut Farmakologii Polskiej Akademii Nauk, priority 2013, dated 2015)"}
{"target": "mGluR8 (Homo sapiens, UniProt O00222)", "sequence (O00222 34-908, species assumed)": "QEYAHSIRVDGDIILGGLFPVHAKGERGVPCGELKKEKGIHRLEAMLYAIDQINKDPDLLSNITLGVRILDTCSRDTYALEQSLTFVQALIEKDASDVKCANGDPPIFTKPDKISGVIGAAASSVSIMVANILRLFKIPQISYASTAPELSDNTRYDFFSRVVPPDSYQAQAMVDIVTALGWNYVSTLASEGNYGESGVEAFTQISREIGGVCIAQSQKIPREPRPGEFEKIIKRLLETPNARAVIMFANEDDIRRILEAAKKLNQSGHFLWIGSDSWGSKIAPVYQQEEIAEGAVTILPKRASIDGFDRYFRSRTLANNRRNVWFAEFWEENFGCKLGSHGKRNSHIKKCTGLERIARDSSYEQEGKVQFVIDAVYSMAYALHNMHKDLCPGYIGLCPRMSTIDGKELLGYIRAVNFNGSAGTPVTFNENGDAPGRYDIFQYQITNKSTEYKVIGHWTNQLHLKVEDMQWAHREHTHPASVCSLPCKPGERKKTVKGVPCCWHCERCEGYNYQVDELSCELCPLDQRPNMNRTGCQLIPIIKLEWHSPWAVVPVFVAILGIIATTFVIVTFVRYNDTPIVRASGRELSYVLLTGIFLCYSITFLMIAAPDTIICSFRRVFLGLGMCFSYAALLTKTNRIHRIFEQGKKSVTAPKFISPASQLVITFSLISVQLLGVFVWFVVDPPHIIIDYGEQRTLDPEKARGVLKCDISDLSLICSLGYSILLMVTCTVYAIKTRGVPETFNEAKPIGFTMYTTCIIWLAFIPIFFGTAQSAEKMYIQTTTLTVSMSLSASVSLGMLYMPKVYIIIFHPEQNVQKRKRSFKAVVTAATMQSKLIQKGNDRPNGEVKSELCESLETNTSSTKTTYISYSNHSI", "experiment": "not given", "settings": "cited from earlier work", "units": {"selectivity for mGluR8 over mGluR4": "fold"}}
{"smiles": "N[C@H](C(=O)O)c1ccc(C(=O)O)c(C(=O)O)c1", "note": "[(S)-3,4-DCPG]", "selectivity for mGluR8 over mGluR4": 100}
{"target": "mGluR1 (Homo sapiens, UniProt Q13255)", "sequence (Q13255 19-1194)": "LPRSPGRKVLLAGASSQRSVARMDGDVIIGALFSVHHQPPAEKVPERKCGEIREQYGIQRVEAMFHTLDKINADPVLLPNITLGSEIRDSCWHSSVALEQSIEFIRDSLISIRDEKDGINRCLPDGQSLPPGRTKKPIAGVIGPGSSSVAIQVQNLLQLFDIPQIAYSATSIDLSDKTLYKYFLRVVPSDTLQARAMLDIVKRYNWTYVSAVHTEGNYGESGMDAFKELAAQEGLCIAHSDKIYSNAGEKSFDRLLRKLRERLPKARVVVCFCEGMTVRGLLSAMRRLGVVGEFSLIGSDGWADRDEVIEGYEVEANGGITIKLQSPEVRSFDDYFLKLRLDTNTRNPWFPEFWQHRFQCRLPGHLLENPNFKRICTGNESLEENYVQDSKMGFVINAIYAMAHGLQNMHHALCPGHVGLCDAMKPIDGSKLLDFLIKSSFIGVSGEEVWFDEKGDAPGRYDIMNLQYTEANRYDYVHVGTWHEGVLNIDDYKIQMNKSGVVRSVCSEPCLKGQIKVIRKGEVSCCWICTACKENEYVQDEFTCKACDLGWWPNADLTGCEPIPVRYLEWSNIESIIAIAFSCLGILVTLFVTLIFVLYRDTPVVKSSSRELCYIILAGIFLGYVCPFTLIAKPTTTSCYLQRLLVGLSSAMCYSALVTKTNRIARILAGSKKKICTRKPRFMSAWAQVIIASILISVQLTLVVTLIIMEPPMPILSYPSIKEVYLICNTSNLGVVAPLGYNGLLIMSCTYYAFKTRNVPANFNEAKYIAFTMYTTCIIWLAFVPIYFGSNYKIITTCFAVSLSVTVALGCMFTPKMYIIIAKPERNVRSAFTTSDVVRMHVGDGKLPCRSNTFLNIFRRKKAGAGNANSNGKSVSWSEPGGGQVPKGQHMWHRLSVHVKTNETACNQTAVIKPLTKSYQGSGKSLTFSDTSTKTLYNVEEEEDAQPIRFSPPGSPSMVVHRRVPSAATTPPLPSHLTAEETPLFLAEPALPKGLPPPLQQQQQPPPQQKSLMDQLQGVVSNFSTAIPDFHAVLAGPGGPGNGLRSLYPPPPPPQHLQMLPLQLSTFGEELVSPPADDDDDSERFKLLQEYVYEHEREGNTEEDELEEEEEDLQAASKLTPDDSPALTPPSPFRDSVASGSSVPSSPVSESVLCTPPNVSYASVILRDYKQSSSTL", "experiment": "not given", "settings": "cited from earlier work", "units": {"partial antagonist of mGluR1": "%"}}
{"smiles": "O=C(Nc1ccccc1)C12CC1C(=NO)c1ccccc1O2", "note": "(single isomer, unassigned; (-)) [(-)PHCCC, N-phenyl-7-(hydroxyimino)cyclopropan[b]chromen-1a-carboxamide]", "partial antagonist of mGluR1": 30}
{"target": "T1, recombinant human mGlu4a receptor (Homo sapiens, UniProt Q14833)", "T1 construct": "expressed in transfected cells", "T1 sequence (Q14833 33-912)": "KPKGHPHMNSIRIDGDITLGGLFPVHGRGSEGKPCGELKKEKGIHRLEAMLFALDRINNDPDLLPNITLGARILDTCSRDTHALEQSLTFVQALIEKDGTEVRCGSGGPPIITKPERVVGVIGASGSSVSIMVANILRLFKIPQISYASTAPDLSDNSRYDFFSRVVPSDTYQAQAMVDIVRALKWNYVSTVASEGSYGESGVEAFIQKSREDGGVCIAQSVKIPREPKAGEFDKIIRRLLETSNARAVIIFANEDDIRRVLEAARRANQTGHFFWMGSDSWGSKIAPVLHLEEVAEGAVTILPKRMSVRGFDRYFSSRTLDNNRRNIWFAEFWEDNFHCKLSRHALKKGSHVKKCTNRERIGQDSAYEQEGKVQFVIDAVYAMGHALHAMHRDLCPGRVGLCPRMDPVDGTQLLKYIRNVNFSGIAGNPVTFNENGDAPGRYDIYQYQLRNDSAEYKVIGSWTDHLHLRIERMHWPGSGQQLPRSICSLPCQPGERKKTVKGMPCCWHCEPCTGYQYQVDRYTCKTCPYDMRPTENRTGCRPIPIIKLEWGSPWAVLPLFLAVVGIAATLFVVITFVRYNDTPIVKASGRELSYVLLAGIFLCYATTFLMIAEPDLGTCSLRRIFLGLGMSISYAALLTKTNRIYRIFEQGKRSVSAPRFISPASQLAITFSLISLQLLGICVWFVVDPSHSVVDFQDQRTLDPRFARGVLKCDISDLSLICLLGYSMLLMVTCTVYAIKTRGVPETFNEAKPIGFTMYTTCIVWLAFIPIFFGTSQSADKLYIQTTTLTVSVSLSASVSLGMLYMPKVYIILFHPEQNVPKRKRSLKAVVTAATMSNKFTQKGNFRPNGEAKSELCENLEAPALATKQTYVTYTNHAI", "experiment": "mGluR4 assay on T-Rex-293 cell line; cyclic AMP level by HTRF in the presence of forskolin and glutamate", "format": "cell-based", "settings": "EC50 for potentiation of glutamate response; forskolin 10 uM; mean of at least three independent experiments in duplicates", "source_text": "(§1) mGluR4 assay on T-Rex™-293 Cell line - expressing recombinant human mGlu4 receptor.\n(§2) The compounds of the present invention are positive allosteric modulator of III group of metabotropic glutamate receptors, subtype 4. Their activity was examined on recombinant human mGlu4a receptor by detecting level of cyclic AMP in the presence of forskolin, adenylyl cyclase activator. The positive allosteric modulators provided in the present invention are expected to increase the functional activity and/or maximal efficacy of glutamate or other orthosteric agonists at mGluR4 receptor.\n(§3) Plazmid construct. The cDNA fragment encoding human metabotropic receptor 4, variant 1 (accession number: NM_000841, NCBI Nucleotide Database) was cloned into the BamHI/NotI sites of pcDNA5/FRT/TO vector, under the control of a tetracycline regulated promoter (Invitrogen, Poland).\n(§4) Cell culture and transfection. HEK293 cell line containing an inducible expression system (Flp-In T-Rex 293 cell line, Invitrogen, Poland) was maintained in Dulbecco's modified Eagle's medium supplemented with 10% fetal bovine serum, 2mM L-Glutamine (supplemented DMEM, LONZA, Poland), blastycidin and zeocin. T-Rex 293 cells were transfected with mixture of pTet-hmGluR4 and pOG44 (Invitrogen, Poland) plazmids and GeneJuice transfection reagent (Merck Millipore, Poland) according to the manufacturer's instructions. Cells were grown in supplemented DMEM with hygromycin B (75µg/ml) allowed selection of cells with stably integrated one copy of pTet-hmGluR4 plazmid. Expression of mGluR4 is induced by Tetracycline treatment.\n(§5) Cell preparation before assay. Stable transfected cells were grown to 60% confluency with supplemented DMEM. Two days before experiment mGluR4 expression was induced by adding tetracycline in concentration 0,75µg/ml. 40h before experiment cells were incubated in a L-Glutamine free medium.\n(§6) Cyclic AMP measurement. cAMP was measured quantitatively by cAMP dynamic 2 (Cisbio Biossays, France) according to manufacture instructions. cAMP dynamic 2 assay (Cisbio Biossays, France) is method based on homogenous time-resolved fluorescence. cAMP dynamic 2 is a competitive immunoassay between native cAMP produced by cells and the cyclic AMP labeled with, a fluorescence dye. The tracer binding is visualized by antibody anti - cAMP labeled with Eu^3+ cryptate. The specific signal is inversely proportional to the concentration of cAMP in the sample.\n(§7) Incubation of cells with all compounds was performed in 96 well plates. Each well were supplement with HHB containing 130 mM NaCl, 5,4 mM KCl, 1,8 mM CaCl2, 0,8 mM MgSO4, 0,9 mM NaH2PO4, 25 mM glucose and 20 mM HEPES, pH 7.4 with or without glutamate and with or without tested compound and forskolin (10 uM final concentration) in total volume of 50 ul. Assay was started by adding 50 ul of HHB buffer with cells to each well. Assay was performed in 37° C. After 5 min of incubation 10 ul of suspension containing 2000 cells were transferred to white 384 well plates (784080, Greiner bio-one) containing of 5 ul of cAMP-d2 conjugate in lysis buffer (cAMP dynamic 2, Cisbio Bioassays, France) in each well. Than was added 5 ul of cryptate conjugate in lysis buffer (cAMP dynamic 2, Cisbio Bioassays, France). After 1 h incubation in room temperature the fluorescence intensity of the assay plate were measured at 314 nm excitation, and 620 nm and 665 nm emission in Infinite M1000 (Tecan) microplate reader. Data were expressed as the ratio of 665 nm/620 nm. All liquid handling operations were performed using EVO 2000 system (Tecan, Switzerland).\n(§8) Potentiation of the glutamate response of mGluR4 receptor by the invented compounds was observed as a decrease of EC50 value for the glutamate in the presence of these molecules in the compare of EC50 value in the absence of compounds. A decrease in the EC50 for glutamate in the presence of tested compound was an indicator of degree of mGluR4 positive allosteric modulation at a given concentration of the sample compound. […]", "units": {"EC50": "nM"}}
{"smiles": "COc1ccccc1-c1nc(-c2ccc(NC(=O)c3ccccn3)cc2F)no1", "note": "[Example 27, N-{4-[5-(2-methoxyphenyl)-1,2,4-oxadiazol-3-yl]-3-fluorophenyl}pyridine-2-carboxamide]", "EC50": "< 300"}
{"smiles": "O=C(Nc1ccc(-c2noc(-c3ccccc3)n2)c(C(F)(F)F)c1)c1ccccn1", "note": "[Example 28]", "EC50": "< 300"}
{"smiles": "Cc1cc(NC(=O)c2ccccn2)ccc1-c1noc(-c2ccccc2)n1", "note": "[Example 30, N-[3-methyl-4-(5-phenyl-1,2,4-oxadiazol-3-yl)phenyl]pyridine-2-carboxamide]", "EC50": "< 300"}
{"smiles": "COc1ccc(C(=O)Nc2ccc(-c3nc(-c4ccccc4)no3)cc2)cc1", "note": "[Example 49, 4-methoxy-N-[4-(3-phenyl-1,2,4-oxadiazol-5-yl)phenyl]benzamide]", "EC50": "< 300"}
{"target": "T1, recombinant human mGlu4a receptor", "experiment": "mGluR4 assay on T-Rex-293 cell line; cyclic AMP level by HTRF in the presence of forskolin and glutamate", "format": "cell-based", "settings": "T-REx-293; percent of mGluR4 activity with tested compound and glutamate at maximally activating concentration (100%); mean of at least three independent experiments; read-out: % Glu Max", "source_text": "as §1, §2, §3, §4, §5, §6, §7, §8", "units": {"Emax": "%"}}
{"smiles": "COc1ccc(-c2nc(-c3ccc(NC(=O)c4ccncc4)cc3)no2)cc1", "note": "[Example 6, N-{4-[5-(4-methoxyphenyl)-1,2,4-oxadiazol-3-yl]phenyl}pyridine-4-carboxamide]", "Emax": "105 to 135"}
{"smiles": "COc1cc(NC(=O)c2ccccn2)ccc1-c1noc(-c2ccccc2Cl)n1", "note": "[Example 17, N-{4-[5-(2-chlorophenyl)-1,2,4-oxadiazol-3-yl]-3-methoxyphenyl}pyridine-2-carboxamide]", "Emax": "99.2 to 119"}
{"smiles": "COc1cc(NC(=O)c2ccccn2)ccc1-c1noc(-c2ccc(F)cc2Cl)n1", "note": "[Example 19, N-{4-[5-(2-chloro-4-fluorophenyl)-1,2,4-oxadiazol-3-yl]-3-methoxyphenyl} pyridine-2-carboxamide]", "Emax": "99.2 to 119"}
{"smiles": "O=C(Nc1ccc(-c2noc(-c3ccc(F)cc3Cl)n2)c(Cl)c1)c1ccccn1", "note": "[Example 22, N-{3-chloro-4-[5-(2-chloro-4-fluorophenyl)-1,2,4-oxadiazol-3-yl]phenyl}pyridine-2-carboxamide]", "Emax": "99.2 to 119"}
{"smiles": "O=C(Nc1ccc(-c2noc(-c3ccc(F)cc3Cl)n2)c(F)c1)c1ccccn1", "note": "[Example 26, N-{4-[5-(2-chloro-4-fluorophenyl)-1,2,4-oxadiazol-3-yl]-3-fluorophenyl} pyridine-2-carboxamide]", "Emax": "105 to 135"}
{"smiles": "COc1ccccc1-c1nc(-c2ccc(NC(=O)c3ccccn3)cc2F)no1", "note": "[Example 27, N-{4-[5-(2-methoxyphenyl)-1,2,4-oxadiazol-3-yl]-3-fluorophenyl}pyridine-2-carboxamide]", "Emax": "105 to 118"}
{"smiles": "O=C(Nc1ccc(-c2noc(-c3ccccc3)n2)c(C(F)(F)F)c1)c1ccccn1", "note": "[Example 28]", "Emax": "105 to 118"}
{"smiles": "O=C(Nc1ccc(-c2noc(-c3ccccc3Cl)n2)c(C(F)(F)F)c1)c1ccccn1", "note": "[Example 29, N-{4-[5-(2-chlorophenyl)-1,2,4-oxadiazol-3-yl]-3-(trifluoromethyl)phenyl} pyridine-2-carboxamide]", "Emax": "99.2 to 119"}
{"smiles": "Cc1cc(NC(=O)c2ccccn2)ccc1-c1noc(-c2ccccc2)n1", "note": "[Example 30, N-[3-methyl-4-(5-phenyl-1,2,4-oxadiazol-3-yl)phenyl]pyridine-2-carboxamide]", "Emax": "105 to 118"}
{"smiles": "Cc1cc(NC(=O)c2ccccn2)ccc1-c1noc(-c2ccccc2Cl)n1", "note": "[Example 31, N-{4-[5-(2-chlorophenyl)-1,2,4-oxadiazol-3-yl]-3-methylphenyl}pyridine-2-carboxamide]", "Emax": "105 to 135"}
{"smiles": "COc1cc(NC(=O)c2cccc(F)n2)ccc1-c1noc(-c2ccccc2Cl)n1", "note": "[Example 32, N-{4-[5-(2-chlorophenyl)-1,2,4-oxadiazol-3-yl]-3-methoxyphenyl}-6-fluoropyridine-2-carboxamide]", "Emax": "99.2 to 119"}
{"smiles": "COc1cc(NC(=O)c2ncc(Cl)cc2F)ccc1-c1noc(-c2ccccc2Cl)n1", "note": "[Example 33, 5-chloro-N-{4-[5-(2-chlorophenyl)-1,2,4-oxadiazol-3-yl]-3-methoxyphenyl}-3-fluoropyridine-2-carboxamide]", "Emax": "99.2 to 119"}
{"smiles": "COc1cc(NC(=O)c2cccc(Cl)n2)ccc1-c1noc(-c2ccccc2Cl)n1", "note": "[Example 34, 6-chloro-N-{4-[5-(2-chlorophenyl)-1,2,4-oxadiazol-3-yl]-3-methoxyphenyl}pyridine-2-carboxamide]", "Emax": "99.2 to 119"}
{"smiles": "COc1cc(NC(=O)c2ccncn2)ccc1-c1noc(-c2ccccc2Cl)n1", "note": "[Example 38, N-{4-[5-(2-chlorophenyl)-1,2,4-oxadiazol-3-yl]-3-methoxyphenyl} pyrimidine-4-carboxamide]", "Emax": "105 to 135"}
{"smiles": "COc1cc(NC(=O)c2cccc(F)n2)ccc1-c1noc(-c2ccccc2F)n1", "note": "[Example 40, 6-fluoro-N-{4-[5-(2-fluorophenyl)-1,2,4-oxadiazol-3-yl]-3-methoxyphenyl} pyridine-2-carboxamide]", "Emax": "105 to 135"}
{"smiles": "COc1cc(NC(=O)c2nc(Cl)ccc2Cl)ccc1-c1noc(-c2ccccc2F)n1", "note": "[Example 41, 3,6-dichloro-N-{4-[5-(2-fluorophenyl)-1,2,4-oxadiazol-3-yl]-3-methoxyphenyl}pyridine-2-carboxamide]", "Emax": "99.2 to 119"}
{"smiles": "O=C(Nc1ccc(-c2noc(-c3ccccc3Cl)n2)c(Cl)c1)c1cccc(F)n1", "note": "[Example 42]", "Emax": "99.2 to 119"}
{"smiles": "O=S(=O)(Nc1ccccc1Cl)c1ccc(-c2noc(-c3ccccc3)n2)cc1", "note": "[Example 44, N-(2-chlorophenyl)-4-(5-phenyl-1,2,4-oxadiazol-3-yl)benzene-1-sulfonamide]", "Emax": "99.2 to 119"}
{"smiles": "O=S(=O)(Nc1ccc(F)cc1F)c1ccc(-c2noc(-c3ccccn3)n2)cc1", "note": "[Example 46, N-(2,4-difluorophenyl)-4-[5-(pyridin-2-yl)-1,2,4-oxadiazol-3-yl]benzene-1-sulfonamide]", "Emax": "99.2 to 119"}
{"smiles": "O=C(Nc1ccc(-c2nc(-c3ccccc3)no2)cc1)c1ccccc1", "note": "[Example 47, N-[4-(3-phenyl-1,2,4-oxadiazol-5-yl)phenyl]benzamide]", "Emax": "99.2 to 119"}
{"smiles": "O=C(Nc1ccc(-c2nc(-c3ccccc3)no2)cc1)c1cccc(Cl)c1", "note": "[Example 48, 3-chloro-N-[4-(3-phenyl-1,2,4-oxadiazol-5-yl)phenyl]benzamide]", "Emax": "99.2 to 119"}
{"smiles": "COc1ccc(C(=O)Nc2ccc(-c3nc(-c4ccccc4)no3)cc2)cc1", "note": "[Example 49, 4-methoxy-N-[4-(3-phenyl-1,2,4-oxadiazol-5-yl)phenyl]benzamide]", "Emax": "105 to 118"}
{"smiles": "O=C(Nc1ccc(-c2nc(-c3ccccc3)no2)cc1)c1ccc([N+](=O)[O-])cc1", "note": "[Example 50, 4-nitro-N-[4-(3-phenyl-1,2,4-oxadiazol-5-yl)phenyl]benzamide]", "Emax": "105 to 135"}
{"smiles": "Cn1cccc1C(=O)Nc1ccc(-c2nc(-c3ccccc3)no2)cc1", "note": "[Example 54, 1-methyl-N-[4-(3-phenyl-1,2,4-oxadiazol-5-yl)phenyl]-1H-pyrrole-2-carboxamide]", "Emax": "99.2 to 119"}
